Test results taken from paper PMC5433425 (PeerJ, 2017).
“And” between values parts separate entries of the source, which are not always exact repeats. Identical values can stand only once.

Tests used:
[1] = system: E. coli AG100A (AcrAB pump-deficient); test: MIC, broth microdilution; assay type: cell-based, Escherichia coli
[2] = system: E. coli AG100tet (AcrAB overexpressing); test: MIC, broth microdilution; assay type: cell-based, Escherichia coli; details: E. coli AG100tet
E. coli AG100 = test: Checkerboard synergy assay (MIC of antibiotics/EtBr with efflux inhibitor); assay type: cell-based, Escherichia coli; details: AG100
Experimental: The assays were performed in triplicate and the MIC value was given as result of at least two concordant values.

E. coli AG100tet = test: EtBr efflux by real-time fluorometry; details: 80 µM

CCCOc1ccc(-c2cc(OCCN3CCNCC3)c3ccccc3n2)cc1 [PQQ4R, 4-(2-(piperazin-1-yl)ethoxy)-2-(4-propoxyphenyl) quinolone]
MIC decrease against AG100A compared with wild-type parental strain ([1]; AG100A vs AG100): 8 fold | MIC ([1]; E. coli AG100A): 32 μg/ml and 81.7 μM | MIC [2]: >653.9 µM | MIC of EtBr in presence of the efflux inhibitor (E. coli AG100; inhibitor 40 μM): 200 µg/mL | MIC of OFX in presence of the efflux inhibitor (E. coli AG100; inhibitor 40 μM): 0.125 µg/mL | MIC of OXA in presence of the efflux inhibitor (E. coli AG100; inhibitor 40 μM): 512 µg/mL | MIC of TET in presence of the efflux inhibitor (E. coli AG100; inhibitor 40 μM): 1 µg/mL | MIC of EtBr in presence of the efflux inhibitor (E. coli AG100; inhibitor 80 μM): 100 µg/mL | MIC of OFX in presence of the efflux inhibitor (E. coli AG100; inhibitor 80 μM): 0.125 µg/mL | MIC of OXA in presence of the efflux inhibitor (E. coli AG100; inhibitor 80 μM): 512 µg/mL | MIC of TET in presence of the efflux inhibitor (E. coli AG100; inhibitor 80 μM): 1 µg/mL | reduction in EtBr MIC (E. coli AG100; inhibitor 80 μM): 2 fold | MIC of EtBr in presence of the efflux inhibitor (E. coli AG100; inhibitor 160 μM): 50 µg/mL | MIC of OFX in presence of the efflux inhibitor (E. coli AG100; inhibitor 160 μM): 0.125 µg/mL | MIC of OXA in presence of the efflux inhibitor (E. coli AG100; inhibitor 160 μM): 512 µg/mL | MIC of TET in presence of the efflux inhibitor (E. coli AG100; inhibitor 160 μM): 1 µg/mL | reduction in EtBr MIC (E. coli AG100; inhibitor 160 μM): 4 fold | effect on OXA MIC (E. coli AG100; inhibitor 40 to 160 µM): no effect | reduction in OFX MIC (E. coli AG100; inhibitor 40 to 160 µM): 2 fold | reduction in TET MIC (E. coli AG100; inhibitor 40 to 160 µM): 2 fold | Fluorescence raw data, Channel Cycling A.530/585hp (E. coli AG100tet; cycle 1, + glucose): 3.509 | Fluorescence raw data, Channel Cycling A.530/585hp (E. coli AG100tet; cycle 1, without glucose): 3.29 | Fluorescence raw data, Channel Cycling A.530/585hp (E. coli AG100tet; cycle 2, + glucose): 3.253 | Fluorescence raw data, Channel Cycling A.530/585hp (E. coli AG100tet; cycle 2, without glucose): 3.046 | Fluorescence raw data, Channel Cycling A.530/585hp (E. coli AG100tet; cycle 3, + glucose): 3.181 | Fluorescence raw data, Channel Cycling A.530/585hp (E. coli AG100tet; cycle 3, without glucose): 3.057 | Fluorescence raw data, Channel Cycling A.530/585hp (E. coli AG100tet; cycle 4, without glucose): 3.005 | Fluorescence raw data, Channel Cycling A.530/585hp (E. coli AG100tet; cycle 5, without glucose): 2.971 | Fluorescence raw data, Channel Cycling A.530/585hp (E. coli AG100tet; cycle 6, without glucose): 3.106 | Fluorescence raw data, Channel Cycling A.530/585hp (E. coli AG100tet; cycle 7, without glucose): 3.154 | Fluorescence raw data, Channel Cycling A.530/585hp (E. coli AG100tet; cycle 8, without glucose): 3.202 | Fluorescence raw data, Channel Cycling A.530/585hp (E. coli AG100tet; cycle 9, + glucose): 3.419 | Fluorescence raw data, Channel Cycling A.530/585hp (E. coli AG100tet; cycle 9, without glucose): 3.159 | Fluorescence raw data, Channel Cycling A.530/585hp (E. coli AG100tet; cycle 10, + glucose): 3.524 | Fluorescence raw data, Channel Cycling A.530/585hp (E. coli AG100tet; cycle 10, without glucose): 3.043 | Fluorescence raw data, Channel Cycling A.530/585hp (E. coli AG100tet; cycle 11, + glucose): 3.644 | Fluorescence raw data, Channel Cycling A.530/585hp (E. coli AG100tet; cycle 11, without glucose): 3.142 | Fluorescence raw data, Channel Cycling A.530/585hp (E. coli AG100tet; cycle 12, + glucose): 3.857 | Fluorescence raw data, Channel Cycling A.530/585hp (E. coli AG100tet; cycle 12, without glucose): 3.158 | Fluorescence raw data, Channel Cycling A.530/585hp (E. coli AG100tet; cycle 13, + glucose): 3.873 | Fluorescence raw data, Channel Cycling A.530/585hp (E. coli AG100tet; cycle 13, without glucose): 3.143 | Fluorescence raw data, Channel Cycling A.530/585hp (E. coli AG100tet; cycle 14, + glucose): 3.954 | Fluorescence raw data, Channel Cycling A.530/585hp (E. coli AG100tet; cycle 14, without glucose): 3.212 | Fluorescence raw data, Channel Cycling A.530/585hp (E. coli AG100tet; cycle 15, + glucose): 4.044 | Fluorescence raw data, Channel Cycling A.530/585hp (E. coli AG100tet; cycle 15, without glucose): 3.129 | Fluorescence raw data, Channel Cycling A.530/585hp (E. coli AG100tet; cycle 16, + glucose): 4.17 | Fluorescence raw data, Channel Cycling A.530/585hp (E. coli AG100tet; cycle 16, without glucose): 3.186 | Fluorescence raw data, Channel Cycling A.530/585hp (E. coli AG100tet; cycle 17, + glucose): 4.316 | Fluorescence raw data, Channel Cycling A.530/585hp (E. coli AG100tet; cycle 17, without glucose): 3.1931 | Fluorescence raw data, Channel Cycling A.530/585hp (E. coli AG100tet; cycle 18, + glucose): 4.457 | Fluorescence raw data, Channel Cycling A.530/585hp (E. coli AG100tet; cycle 18, without glucose): 3.175 | Fluorescence raw data, Channel Cycling A.530/585hp (E. coli AG100tet; cycle 19, + glucose): 4.5 | Fluorescence raw data, Channel Cycling A.530/585hp (E. coli AG100tet; cycle 19, without glucose): 3.177 | Fluorescence raw data, Channel Cycling A.530/585hp (E. coli AG100tet; cycle 20, + glucose): 4.55 | Fluorescence raw data, Channel Cycling A.530/585hp (E. coli AG100tet; cycle 20, without glucose): 3.2463 | Fluorescence raw data, Channel Cycling A.530/585hp (E. coli AG100tet; cycle 21, + glucose): 4.567 | Fluorescence raw data, Channel Cycling A.530/585hp (E. coli AG100tet; cycle 21, without glucose): 3.257 | Fluorescence raw data, Channel Cycling A.530/585hp (E. coli AG100tet; cycle 22, + glucose): 4.692 | Fluorescence raw data, Channel Cycling A.530/585hp (E. coli AG100tet; cycle 22, without glucose): 3.214 | Fluorescence raw data, Channel Cycling A.530/585hp (E. coli AG100tet; cycle 23, + glucose): 4.73 | Fluorescence raw data, Channel Cycling A.530/585hp (E. coli AG100tet; cycle 23, without glucose): 3.261 | Fluorescence raw data, Channel Cycling A.530/585hp (E. coli AG100tet; cycle 24, + glucose): 4.823 | Fluorescence raw data, Channel Cycling A.530/585hp (E. coli AG100tet; cycle 24, without glucose): 3.277 | Fluorescence raw data, Channel Cycling A.530/585hp (E. coli AG100tet; cycle 25, + glucose): 4.864 | Fluorescence raw data, Channel Cycling A.530/585hp (E. coli AG100tet; cycle 25, without glucose): 3.306 | Fluorescence raw data, Channel Cycling A.530/585hp (E. coli AG100tet; cycle 26, + glucose): 4.922 | Fluorescence raw data, Channel Cycling A.530/585hp (E. coli AG100tet; cycle 26, without glucose): 3.351 | Fluorescence raw data, Channel Cycling A.530/585hp (E. coli AG100tet; cycle 27, + glucose): 4.884 | Fluorescence raw data, Channel Cycling A.530/585hp (E. coli AG100tet; cycle 27, without glucose): 3.344 | Fluorescence raw data, Channel Cycling A.530/585hp (E. coli AG100tet; cycle 28, + glucose): 5.012 | Fluorescence raw data, Channel Cycling A.530/585hp (E. coli AG100tet; cycle 28, without glucose): 3.341 | Fluorescence raw data, Channel Cycling A.530/585hp (E. coli AG100tet; cycle 29, + glucose): 5.042 | Fluorescence raw data, Channel Cycling A.530/585hp (E. coli AG100tet; cycle 29, without glucose): 3.312 | Fluorescence raw data, Channel Cycling A.530/585hp (E. coli AG100tet; cycle 30, + glucose): 5.087 | Fluorescence raw data, Channel Cycling A.530/585hp (E. coli AG100tet; cycle 30, without glucose): 3.355 | Fluorescence raw data, Channel Cycling A.530/585hp (E. coli AG100tet; cycle 31, + glucose): 5.094 | Fluorescence raw data, Channel Cycling A.530/585hp (E. coli AG100tet; cycle 31, without glucose): 3.321 | Fluorescence raw data, Channel Cycling A.530/585hp (E. coli AG100tet; cycle 32, + glucose): 5.074 | Fluorescence raw data, Channel Cycling A.530/585hp (E. coli AG100tet; cycle 32, without glucose): 3.301 | Fluorescence raw data, Channel Cycling A.530/585hp (E. coli AG100tet; cycle 33, + glucose): 5.085 | Fluorescence raw data, Channel Cycling A.530/585hp (E. coli AG100tet; cycle 33, without glucose): 3.3487 | Fluorescence raw data, Channel Cycling A.530/585hp (E. coli AG100tet; cycle 34, + glucose): 5.136
